Reference: patent publication US11813230B2, “Composition for strengthening skin barrier, moisturizing skin or anti-aging” (COSMAX, INC., priority 2020, dated 2023)

Tests used:
Settings in all cases: 37° C., 48 up to 72 hours, well color change
S. pneumoniae (CX-2) = assay type: cell-based, Streptococcus pneumoniae
Method: (§1) To analyze substance utilization by the isolated strains (Streptococcus pneumoniae, Streptococcus infantis, and Streptococcus mitis), tests were conducted in the following manner. BioLOG GP2 and API 50 were used in determining the substance utilization, and testing was performed using testing methods provided by Omnilog and Biomeriuse. The culturing temperature and media suitable to corresponding strains were selected, and 5 among cluster colonies incubated for 48 hours were taken and suspended in reagents before use. The inoculation amount was 150 μl. As the suspension, components of kits provided by various manufacturers were used. When the strains are yet to be inoculated, the suspension is in a transparent liquid phase. Inoculated plates and strips were incubated at 37° C. for 48 hours, and then the incubation of up to 72 hours was examined. Wells were in a transparent liquid phase at the time of inoculating, but the colors of the wells changed to purple or red, and the color-changed wells were determined to be positive.

S. infantis (CX-4) = assay: Substance utilization (BioLOG GP2 / API 50); assay type: cell-based, Streptococcus infantis
Method: as §1

S. mitis (CX-8) = assay: Substance utilization (BioLOG GP2 / API 50); assay type: cell-based, Streptococcus mitis
Method: as §1

[Cl-].[Na+] [1% NaCl, NaCl]
substance utilization by S. pneumoniae (CX-2) (S. pneumoniae (CX-2)): +
substance utilization by S. infantis (CX-4) (S. infantis (CX-4)): +
substance utilization by S. mitis (CX-8) (S. mitis (CX-8)): +

CC(O)C(=O)[O-].[Na+] (stereo not shown) [1% Sodium Lactate, Sodium Lactate]
substance utilization by S. pneumoniae (CX-2) (S. pneumoniae (CX-2)): +
substance utilization by S. infantis (CX-4) (S. infantis (CX-4)): +
substance utilization by S. mitis (CX-8) (S. mitis (CX-8)): +

OC[C@H]1O[C@@H](O[C@H]2[C@H](O)[C@@H](O)[C@H](O)O[C@@H]2CO)[C@H](O)[C@@H](O)[C@@H]1O [D-Cellobiose]
substance utilization by S. pneumoniae (CX-2) (S. pneumoniae (CX-2)): +
substance utilization by S. infantis (CX-4) (S. infantis (CX-4)): +
substance utilization by S. mitis (CX-8) (S. mitis (CX-8)): +

O=P(O)(O)OC[C@H]1OC(O)(CO)[C@@H](O)[C@@H]1O (stereo partly drawn) [D-Fructose-6-Po4]
substance utilization by S. mitis (CX-8) (S. mitis (CX-8)): +

OC[C@H]1O[C@H](OCC2O[C@@H](O)[C@H](O)[C@@H](O)[C@@H]2O)[C@H](O)[C@@H](O)[C@H]1O (stereo partly drawn) [D-Melibiose]
substance utilization by S. pneumoniae (CX-2) (S. pneumoniae (CX-2)): +

OC[C@H]1O[C@H](OC[C@H]2O[C@H](O[C@]3(CO)O[C@H](CO)[C@@H](O)[C@@H]3O)[C@H](O)[C@@H](O)[C@@H]2O)[C@H](O)[C@@H](O)[C@H]1O [D-Raffinose]
substance utilization by S. pneumoniae (CX-2) (S. pneumoniae (CX-2)): +

OC[C@H]1O[C@H](O[C@H]2[C@H](O)[C@@H](O)[C@H](O)O[C@@H]2CO)[C@H](O)[C@@H](O)[C@@H]1O [D-maltose]
substance utilization by S. pneumoniae (CX-2) (S. pneumoniae (CX-2)): +
substance utilization by S. infantis (CX-4) (S. infantis (CX-4)): +
substance utilization by S. mitis (CX-8) (S. mitis (CX-8)): +

O=C1O[C@H]([C@@H](O)CO)[C@@H](O)[C@@H]1O [L-Galactonic Acid Lactone]
substance utilization by S. mitis (CX-8) (S. mitis (CX-8)): +

[Cl-].[Li+] [Lithium Chloride]
substance utilization by S. mitis (CX-8) (S. mitis (CX-8)): +

O=[Te]([O-])[O-].[K+].[K+] [Potassium Tellurite]
substance utilization by S. pneumoniae (CX-2) (S. pneumoniae (CX-2)): +
substance utilization by S. infantis (CX-4) (S. infantis (CX-4)): +
substance utilization by S. mitis (CX-8) (S. mitis (CX-8)): +

CO[C@H]1/C=C/O[C@@]2(C)Oc3c(C)c([O-])c4c(O)c(cc(O)c4c3C2=O)NC(=O)/C(C)=C\C=C\[C@H](C)[C@H](O)[C@@H](C)[C@@H](O)[C@@H](C)[C@H](OC(C)=O)[C@@H]1C.[Na+] [Rifamycin SV]
substance utilization by S. infantis (CX-4) (S. infantis (CX-4)): +
substance utilization by S. mitis (CX-8) (S. mitis (CX-8)): +

OC[C@H]1O[C@H](OC[C@H]2O[C@H](OC[C@H]3O[C@H](O[C@]4(CO)O[C@H](CO)[C@@H](O)[C@@H]4O)[C@H](O)[C@@H](O)[C@@H]3O)[C@H](O)[C@@H](O)[C@H]2O)[C@H](O)[C@@H](O)[C@H]1O [Stachyose]
substance utilization by S. pneumoniae (CX-2) (S. pneumoniae (CX-2)): +
substance utilization by S. infantis (CX-4) (S. infantis (CX-4)): +
substance utilization by S. mitis (CX-8) (S. mitis (CX-8)): +

COc1cc(-c2ccc(-n3nc(-c4ccccc4)n[n+]3-c3ccccc3)c(OC)c2)ccc1-n1nc(-c2ccccc2)n[n+]1-c1ccccc1.[Cl-].[Cl-] [Tetrazolium Blue]
substance utilization by S. infantis (CX-4) (S. infantis (CX-4)): +
substance utilization by S. mitis (CX-8) (S. mitis (CX-8)): +

D-Salicin
substance utilization by S. mitis (CX-8) (S. mitis (CX-8)): +

D-Turanose
substance utilization by S. pneumoniae (CX-2) (S. pneumoniae (CX-2)): +

Dextrin
substance utilization by S. pneumoniae (CX-2) (S. pneumoniae (CX-2)): +
substance utilization by S. infantis (CX-4) (S. infantis (CX-4)): +
substance utilization by S. mitis (CX-8) (S. mitis (CX-8)): +

Pectin
substance utilization by S. pneumoniae (CX-2) (S. pneumoniae (CX-2)): +
substance utilization by S. infantis (CX-4) (S. infantis (CX-4)): +
substance utilization by S. mitis (CX-8) (S. mitis (CX-8)): +

Tween 40
substance utilization by S. pneumoniae (CX-2) (S. pneumoniae (CX-2)): +
substance utilization by S. infantis (CX-4) (S. infantis (CX-4)): +
